From patent publication US10150761B2, “Substituted pyridine-piperazinyl analogues as RSV antiviral compounds” (Janssen Sciences Ireland UC, priority 2013, dated 2018)

Assays:
[1] = Cytotoxicity in HeLa cells (ATP content, ATPlite kit); type: cell-based; conditions: human, three days incubation, read-out: TOX HELA pCC50 (converted)
Protocol: (§1) Glycosaminoglycan sulfation requirements for respiratory syncytial virus infection; Journal of virology (2000), 74(22), 10508-13) and was in-licensed from the NIH (Bethesda, Md., USA). Finally, 20 μL of a HeLa cell suspension (3,000 cells/well) were plated. Medium, virus- and mock-infected controls were included in each test. The wells contain 0.05% DMSO per volume. Cells were incubated at 37° C. in a 5% CO2 atmosphere. Three days post-virus exposure, viral replication was quantified by measuring GFP expression in the cells by an in house developed MSM laser microscope (Tibotec. Beerse, Belgium). The EC50 was defined as the 50% inhibitory concentration for GFP expression. In parallel, compounds were incubated for three days in a set of white 384-well microtiter plates (Corning) and the cytotoxicity of compounds in HeLa cells was determined by measuring the ATP content of the cells using the ATPlite kit (PerkinElmer, Zaventem, Belgium) according to the manufacturer's instructions. The CC50 was defined as the 50% concentration for cytotoxicity.

rgRSV224 virus = assay: Antiviral activity: rgRSV224 (GFP) replication in HeLa cells; type: cell-based, respiratory syncytial virus (RSV); conditions: for EC50: human respiratory syncytial virus, HeLa, 72 h, read-out: RSV HELA pEC50, rgRSV224 virus (MOI=1), HeLa cells, GFP expression, three days post-virus exposure (converted)
Protocol: Black 384-well clear-bottom microtiter plates (Corning, Amsterdam, The Netherlands) were filled via acoustic drop ejection using the echo liquid handler (Labcyte, Sunnyvale, Calif.), 200 nL of compound stock solutions (100% DMSO) were transferred to the assay plates, 9 serial 4-fold dilutions of compound were made, creating per quadrant the same compound concentration. The assay was initiated by adding 10 μL of culture medium to each well (RPMI medium without phenol red, 10% FBS-heat inactivated, 0.04% gentamycin (50 mg/mL). All addition steps are done by using a multidrop dispenser (Thermo Scientific, Erembodegem, Belgium). Next, rgRSV224 virus (MOI=1) diluted in culture medium was added to the plates, rgRSV224 virus is an engineered virus that includes an additional GFP gene (Hallak L K, Spillmann D. Collins P L, Peeples M E.
as §1

HeLa cells = assay: Cytotoxicity in HeLa cells (ATP content, ATPlite kit); type: cell-based; conditions: three days incubation
Protocol: as §1

For Fc1ccc(-c2ncccc2N2CCN(c3ccncc3)CC2)cc1 [Compound 13], which melting point is on record?
Its melting point is 173.62 °C.

What about the CC50 at 3 days [1] of the same compound?
Its CC50 at 3 days is > 89.1 µM.

And the EC50 (rgRSV224 virus)?
The EC50 was 603 nM.

Which results are given for Fc1cccc(-c2nccnc2N2CCN(c3ccccc3)CC2)c1 [Compound 6]?
melting point: 139.51 °C; CC50 at 3 days [1]: > 100 µM; EC50 (rgRSV224 virus): 575 nM

Which results are given for CC(=O)c1cccc(-c2ncccc2N2CCN(c3ccccc3)CC2)c1 [Compound 8]?
melting point: 175.94 °C; CC50 at 3 days [1]: > 100 µM; EC50 (rgRSV224 virus): 646 nM

For OC(c1ccccc1)(c1ccccc1)c1ncccc1N1CCN(c2ccncc2)CC1 [Compound 68], which melting point is on record?
The melting point was 260 °C.

What about the CC50 at 3 days [1] of the same compound?
The CC50 at 3 days was > 25.1 µM.

And the EC50 (rgRSV224 virus)?
Its EC50 is 25.1 nM.

For COc1ccc(-c2ncccc2N2CCN(c3ccncc3)CC2)cc1 [Compound 4], which melting point is on record?
The melting point was 216 °C.

What about the “TOX HELA pCC50” value (HeLa cells) of the same compound?
The value was <4.01.

And the “RSV HELA pEC50” value (rgRSV224 virus; rgRSV224 virus (MOI=1), HeLa cells, GFP expression, three days post-virus exposure)?
The value was 6.38.

With Clc1cc(N2CCN(c3cccnc3-c3ccccc3)CC2)ccn1 [Compound 32] as the compound, how does the melting point read?
Its melting point is 122 °C.

And the CC50 at 3 days [1]?
Its CC50 at 3 days is 0.135 µM.

And the EC50 (rgRSV224 virus)?
The EC50 was 105 nM.

For c1cnc(-c2ccc3ccccc3c2)c(N2CCN(c3ccncc3)CC2)c1 [Compound 10], which melting point is on record?
The melting point was 162.05 °C.

What about the CC50 at 3 days [1] of the same compound?
Its CC50 at 3 days is 39.8 µM.

What about the EC50 (rgRSV224 virus) of the same compound?
The EC50 was 79.4 nM.

Which results are given for c1cnc(-c2ccc(N3CCCCC3)cc2)c(N2CCN(c3ccncc3)CC2)c1 [Compound 60]?
melting point: 92 °C; CC50 at 3 days [1]: 22.9 µM; EC50 (rgRSV224 virus): 355 nM

Which results are given for FC(F)(F)Oc1ccc(-c2ncccc2N2CCN(c3ccncc3)CC2)cc1 [Compound 25]?
melting point: 176 °C; CC50 at 3 days [1]: 33.1 µM; EC50 (rgRSV224 virus): 871 nM

What does the source list for c1ccc(-c2ncccc2N2CCN(c3ccncc3)CC2)cc1 [Compound 2]?
melting point: 204.15 °C; CC50 at 3 days [1]: 1.12 µM; EC50 (rgRSV224 virus): 603 nM

With c1cnc(-c2cc3ccccc3o2)c(N2CCN(c3ccncc3)CC2)c1 [Compound 23] as the compound, how does the melting point read?
The melting point was 252 °C.

And the CC50 at 3 days [1]?
The CC50 at 3 days was > 50.1 µM.

What about the EC50 (rgRSV224 virus) of the same compound?
The EC50 was 58.9 nM.

Which melting point does the source give for COc1ccc(-c2ncccc2N2CCN(c3ccncc3)CC2)cn1 [Compound 17] here?
The melting point was 138 °C.

And the CC50 at 3 days [1]?
Its CC50 at 3 days is > 97.7 µM.

And the EC50 (rgRSV224 virus)?
Its EC50 is 437 nM.

For c1cnc(-c2ccc3cc[nH]c3c2)c(N2CCN(c3ccncc3)CC2)c1 [Compound 44], which melting point is on record?
Its melting point is 195 °C.

And the CC50 at 3 days [1]?
Its CC50 at 3 days is 53.7 µM.

What about the EC50 (rgRSV224 virus) of the same compound?
The EC50 was 32.4 nM.

Which melting point does the source give for c1cnc(-c2ccc3[nH]ccc3c2)c(N2CCN(c3ccncc3)CC2)c1 [Compound 36] here?
Its melting point is 252 °C.

And the CC50 at 3 days [1]?
Its CC50 at 3 days is 44.7 µM.

And the EC50 (rgRSV224 virus)?
Its EC50 is 79.4 nM.

Which melting point does the source give for CC(=O)c1cccc(-c2nccnc2N2CCN(c3ccccc3)CC2)c1 [Compound 1] here?
The melting point was 172.56 °C.

And the CC50 at 3 days [1]?
The CC50 at 3 days was 2.29 µM.

And the EC50 (rgRSV224 virus)?
Its EC50 is 955 nM.

For CSc1ccc(-c2ncccc2N2CCN(c3ccncc3)CC2)cc1 [Compound 35], which melting point is on record?
Its melting point is 160 °C.

What about the CC50 at 3 days [1] of the same compound?
Its CC50 at 3 days is 45.7 µM.

And the EC50 (rgRSV224 virus)?
The EC50 was 117 nM.
